Data reported in PMC2671563 (PLoS Biology, 2009).
Like-named read-outs stand apart in the source and are kept apart here. Blank lines part the entries; values can stand above or below the molecule they belong to.

Columns and labels:
[1] = target: T1, human S100A9 (Homo sapiens, UniProt P06702); assay: SPR: human S100A9 binding to immobilised ABR-224649 (Q compound), direct binding and displacement
T1 construct: made in house; host or cells: Escherichia coli (or purified from granulocytes)
T1 sequence (P06702 1-114): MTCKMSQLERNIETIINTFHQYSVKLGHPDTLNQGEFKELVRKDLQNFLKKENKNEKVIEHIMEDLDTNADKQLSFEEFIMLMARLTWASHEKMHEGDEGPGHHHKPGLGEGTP
Description: (§1) The SPR analysis was carried out with the Biacore 3000 system (GE Healthcare). Sensor chips, amine coupling kit, immobilization and running buffers, and regeneration solutions were obtained from GE Healthcare. Working solutions of all reagents used for Biacore analysis were prepared in 0.01 M Hepes, 0.15 M NaCl (pH 7.4) containing 0.005% v/v Surfactant P-20 (HBS-P; GE Healthcare) by buffer exchange on Fast Protein Desalting Micro-Spin Columns from Pierce. ABR-215757 was immobilised onto a CM5 chip through an amino-linker (ABR-224649). […] Activity of ligands after immobilisation was tested by injecting specific antibodies (unpublished data). In some experiments, S100A9 was immobilized either by random amine coupling or with a known orientation (i.e., by sulhydryl group conjugation to the only cysteine in S100A9 at position 3).
(§2) Binding to the various surfaces was performed by injecting the analyte at a flow rate of 30 μl/min in a physiological buffer (HBS-P) containing 1 mM Ca^2+ and 10 μM Zn^2+ as proposed for S100A8/9 by Robinson et al.. A typical analysis cycle consists of: (1) pumping running buffer for 1 min to obtain a stable baseline; (2) injection of sample for an appropriate period of time (association); (3) pumping running buffer for 2.5 min (dissociation); (4) injection of a short pulse (30 s) of 15 μl 10 mM glycine-HCl (pH 2.0) (regeneration); and (5) pumping running buffer for 2 min (stabilisation after regeneration) at a flow rate of 30 μl/min. […] In one experiment, S100A9 was injected into a buffer with a fixed Ca^2+ concentration (1 mM) and Zn^2+ in the range 0–50 μM. In a second experiment, Ca^2+ was varied from 0–2 mM at a fixed Zn^2+ concentration (10 μM). In subsequent analyses, regeneration was carried out under more mild conditions, i.e., by injecting 30 μl of HBS-P containing 3 mM EDTA (HBS-EP; GE Healthcare) for 60 s, to prolong the lifespan of the chip.
(§3) Compounds were also injected over the immobilised surfaces in the absence of S100A9 to exclude, or make possible correction for, any direct binding of compound to the surface.
(§4) Evaluation was carried out using BIAevaluation Software version 3.2 (GE Healthcare). The response at steady-state was obtained by fit of sensorgrams to standard binding models, where appropriate, or calculated as responses at late association or early dissociation phase using the Steady state affinity function in BIAevaluation. Affinity was determined from kinetic analysis (on- and off-rates) or as the apparent affinity after plotting responses versus concentration of analyte in a saturation curve. In the inhibition assay format, the competitor concentration yielding 50% inhibition (IC50) was calculated by fitting data to a one-site competition model in GraphPad Prism.

[2] = system: serum TNFα after LPS challenge; assay: LPS-induced systemic TNFα production in C57BL/6 mice; format: in vivo, mouse
Description: TNFα induction after intraperitoneal challenge with LPS was performed essentially as described. In brief, mice were pretreated for 2 h with 10 mg/kg ABR-215757 or PBS, after which 3 or 6 μg of LPS was injected intraperitoneally. After an additional 90 min, the animals were sacrificed, and the level of TNFα in blood was determined using commercial TNFα antibodies (eBioscience; http://www.ebioscience.com).

[3] = target: T2, mS100A8/A9 and mRAGE (Mus musculus, UniProt P31725); assay: SPR: inhibition of mouse S100A8/A9 binding to mouse RAGE; settings: Table S1
T2 construct: purchased R&D Systems (mRAGE/Fc); S100A8/A9 made in house
T2 sequence (P31725 2-113 limits assumed): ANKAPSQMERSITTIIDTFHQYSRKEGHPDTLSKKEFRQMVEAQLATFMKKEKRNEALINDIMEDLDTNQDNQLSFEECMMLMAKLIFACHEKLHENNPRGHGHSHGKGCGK
T2 sequence (P27005 2-89 partner limits assumed): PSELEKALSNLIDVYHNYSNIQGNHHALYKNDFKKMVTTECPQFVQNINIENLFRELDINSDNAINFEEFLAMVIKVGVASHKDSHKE
Description: as §1, §2, §3, §4

[4] = target: T3, human S100A9 binding to human TLR4/MD2 (Homo sapiens, UniProt P06702); assay: SPR: inhibition of human S100A9 binding to immobilised human TLR4/MD2
T3 construct: purchased R&D Systems (TLR4/MD-2 complex); S100A9 made in house
T3 sequence (P06702 1-114): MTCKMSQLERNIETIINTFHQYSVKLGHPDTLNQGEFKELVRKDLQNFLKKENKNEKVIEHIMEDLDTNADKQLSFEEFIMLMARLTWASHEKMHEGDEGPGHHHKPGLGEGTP
Description: as §1, §2, §3, §4

[5] = target: T4, human S100A8 (Homo sapiens, UniProt P05109); assay: SPR: human S100A8 binding to immobilised Q compound; settings: 100 nM protein
T4 construct: made in house; host or cells: Escherichia coli or granulocytes
T4 sequence (P05109 1-93): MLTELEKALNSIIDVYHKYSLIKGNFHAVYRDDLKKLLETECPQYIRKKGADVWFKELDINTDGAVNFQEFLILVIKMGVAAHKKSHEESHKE
Description: as §1
Binding to the various surfaces was performed by injecting the analyte at a flow rate of 30 μl/min in a physiological buffer (HBS-P) containing 1 mM Ca^2+ and 10 μM Zn^2+ as proposed for S100A8/9 by Robinson et al.. […]

[6] = target: T5, human RAGE (Homo sapiens, UniProt Q15109); assay: SPR: direct binding to immobilised human RAGE; settings: unpublished data
T5 construct: purchased R&D Systems
T5 sequence (Q15109 23-342 limits assumed): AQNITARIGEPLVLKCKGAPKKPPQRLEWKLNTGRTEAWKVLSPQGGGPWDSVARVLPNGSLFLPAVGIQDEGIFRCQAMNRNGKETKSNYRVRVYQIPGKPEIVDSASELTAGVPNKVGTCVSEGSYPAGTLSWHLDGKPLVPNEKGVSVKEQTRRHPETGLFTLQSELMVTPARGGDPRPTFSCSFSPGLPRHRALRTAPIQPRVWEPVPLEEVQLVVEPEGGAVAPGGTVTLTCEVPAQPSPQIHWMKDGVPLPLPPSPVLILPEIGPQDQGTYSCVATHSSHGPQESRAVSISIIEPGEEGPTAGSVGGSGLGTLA
Description: as §1, with “3). […]” for “3).”
as §4, with “In the inhibition assay format, the competitor concentration yielding 50% inhibition (IC50) was calculated by fitting data to a one-site competition model in GraphPad Prism.” left out

[7] = target: T6, human S100A9 binding to human RAGE (Homo sapiens, UniProt P06702); assay: SPR: inhibition of human S100A9 binding to immobilised human RAGE
T6 construct: purchased R&D Systems (RAGE/Fc); S100A9 made in house
T6 sequence (P06702 1-114): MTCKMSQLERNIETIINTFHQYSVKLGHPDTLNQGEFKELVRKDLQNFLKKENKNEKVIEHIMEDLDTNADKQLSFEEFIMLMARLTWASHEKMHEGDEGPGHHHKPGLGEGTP
Description: as §1, §2, §3, §4

[8] = target: T7, mS100A8/A9 and mLPS-Trap (Mus musculus, UniProt P31725); assay: SPR: inhibition of mouse S100A8/A9 binding to mLPS-Trap; settings: Table S1; read-out: S100A8-9 binding IC50, mS100A8/A9 TLR4
T7 sequence (P31725 2-113 limits assumed): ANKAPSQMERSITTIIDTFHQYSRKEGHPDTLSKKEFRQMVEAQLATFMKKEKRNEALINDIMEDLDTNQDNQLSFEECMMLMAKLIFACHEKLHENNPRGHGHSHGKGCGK
Description: as §1, §2, §3, §4

[9] = target: T8, mS100A9 (Mus musculus, UniProt P31725); assay: SPR: inhibition of mouse S100A9 binding to immobilised ABR-224649; settings: Table S1
T8 construct: made in house; host or cells: Escherichia coli (or purified from granulocytes)
T8 sequence (P31725 1-113): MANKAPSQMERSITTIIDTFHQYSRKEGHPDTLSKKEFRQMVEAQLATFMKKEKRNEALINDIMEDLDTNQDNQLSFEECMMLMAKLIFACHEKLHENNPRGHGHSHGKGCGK
Description: as §1, §2, §3, §4

[10] = system: aEAE development in SLJ/N mice; assay: acute experimental autoimmune encephalomyelitis (aEAE) in mice; format: in vivo, mouse; settings: Mus musculus, read-out: aEAE Inhibition ED50
Source text: A training set of five quinoline derivatives with structural diversification performed at position 5 of the quinoline ring system was used for the SAR. PCA was used to uncover any relationship between the binding activities of the quinoline derivatives at the S100 proteins and the inhibitory effect of these derivatives in the aEAE model. PLS was then used to model the relationship between the physiochemical descriptors used to characterize the compounds and their biological responses. […] All variables were mean centred and scaled to unit variance.

[11] = target: T9, mS100A9 and mLPS-Trap (Mus musculus, UniProt P31725); assay: SPR: inhibition of mouse S100A9 binding to immobilised mouse TLR4/MD2 fusion protein (mLPS-Trap)
T9 sequence (P31725 2-113 limits assumed): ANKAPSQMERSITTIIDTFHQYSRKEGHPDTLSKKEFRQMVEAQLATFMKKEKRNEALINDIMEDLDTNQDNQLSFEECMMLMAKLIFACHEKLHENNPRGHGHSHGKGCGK
Description: as §1, §2, §3, §4

[12] = target: T10, human TLR4/MD2 (Homo sapiens, UniProt O00206+Q9Y6Y9); assay: SPR: direct binding to immobilised human TLR4/MD2; settings: unpublished data
T10 construct: purchased R&D Systems
T10 sequence (O00206 24-631 limits assumed): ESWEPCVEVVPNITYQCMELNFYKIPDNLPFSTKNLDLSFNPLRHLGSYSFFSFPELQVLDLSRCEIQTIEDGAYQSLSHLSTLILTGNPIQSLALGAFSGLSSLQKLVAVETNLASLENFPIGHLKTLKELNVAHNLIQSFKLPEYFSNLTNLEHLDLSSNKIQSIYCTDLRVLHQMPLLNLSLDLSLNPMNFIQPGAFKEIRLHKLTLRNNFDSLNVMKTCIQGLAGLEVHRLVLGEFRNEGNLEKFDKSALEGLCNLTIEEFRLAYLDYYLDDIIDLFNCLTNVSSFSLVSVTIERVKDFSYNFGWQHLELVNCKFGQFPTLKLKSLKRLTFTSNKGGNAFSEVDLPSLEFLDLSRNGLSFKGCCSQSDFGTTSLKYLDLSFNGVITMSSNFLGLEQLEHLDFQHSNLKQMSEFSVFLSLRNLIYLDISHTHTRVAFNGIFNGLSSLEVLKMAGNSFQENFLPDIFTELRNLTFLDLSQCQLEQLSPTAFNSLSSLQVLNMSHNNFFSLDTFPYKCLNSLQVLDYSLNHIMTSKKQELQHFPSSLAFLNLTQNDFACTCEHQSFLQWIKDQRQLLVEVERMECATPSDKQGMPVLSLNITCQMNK
T10 sequence (Q9Y6Y9 19-160): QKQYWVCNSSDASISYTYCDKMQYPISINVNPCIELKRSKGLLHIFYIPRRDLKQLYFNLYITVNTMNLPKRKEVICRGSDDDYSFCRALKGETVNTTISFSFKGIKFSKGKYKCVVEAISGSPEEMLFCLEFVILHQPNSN
Description: as §1, with “3). […]” for “3).”
as §4, with “In the inhibition assay format, the competitor concentration yielding 50% inhibition (IC50) was calculated by fitting data to a one-site competition model in GraphPad Prism.” left out

[13] = target: T11, mS100A9 and mRAGE/hFc (Mus musculus, UniProt P31725); assay: SPR: inhibition of mouse S100A9 binding to immobilised mouse RAGE
T11 construct: purchased R&D Systems (mRAGE/Fc); S100A9 made in house
T11 sequence (P31725 2-113 limits assumed): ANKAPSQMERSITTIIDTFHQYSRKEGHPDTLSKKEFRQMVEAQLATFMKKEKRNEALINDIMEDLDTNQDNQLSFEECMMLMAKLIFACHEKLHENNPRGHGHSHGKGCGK
Description: as §1, §2, §3, §4

[14] = target: T12, human TLR4/MD-2 complex (human, UniProt O00206 24-631; Q9Y6Y9 19-160); assay: SPR; 100 nM TLR4/MD2 or MD2 injected over amine-coupled hS100A9 (~5,000 RU); fit to a 1:1 model with mass transfer; settings: both partners purified
T12 construct: Toll-like receptor 4, human; MD-2, human; Soluble recombinant complex; also called hTLR4/MD-2; hTLR4/MD2; source: bought: R&D Systems (carrier-free recombinant)
T12 sequence (O00206 24-631, chain 1 of 2): as the sequence (O00206 24-631 limits assumed) above
T12 sequence (Q9Y6Y9 19-160, chain 2 of 2): as the sequence (Q9Y6Y9 19-160) above

[15] = target: T12, human TLR4/MD-2 complex; assay: SPR; S100 proteins injected (100 nM, or a range of concentrations; 30 ul/min) over human TLR4/MD2 immobilised by amine coupling (~3,000 RU); HBS-P pH 7.4 with 1 mM Ca2+ and 10 uM Zn2+; fit to a 1:1 model with mass transfer; half-maximal binding from responses at late association (apparent); settings: both partners purified
[16] = target: T13, recombinant human RAGE/Fc (human, UniProt Q15109 23-342); assay: SPR; S100 proteins injected (100 nM, or a range of concentrations; 30 ul/min) over human RAGE/Fc immobilised by amine coupling (~3,000 RU); HBS-P pH 7.4 with 1 mM Ca2+ and 10 uM Zn2+; fit to a 1:1 model with mass transfer; half-maximal binding from responses at late association (apparent); settings: both partners purified
T13 construct: RAGE (receptor for advanced glycation end products), human; human IgG1 Fc was used as the control for the Fc part; also called hRAGE; rhRAGE/Fc; source: bought: R&D Systems (carrier-free recombinant)
T13 sequence (Q15109 23-342): as the sequence (Q15109 23-342 limits assumed) above

Molecule: CCc1cccc2c1c(O)c(C(=O)N(CC)c1ccccc1)c(=O)n2C [ABR-215757]
binding of recombinant S100A9 to Q compound coupled to solid phase [1]: bound strongly
IC50 ([1]; 100 nM S100A9, competitor 7.81–1,000 μM, one-site competition model, 1 mM Ca2+ and 10 μM Zn2+): 37 µM
TNFα production after LPS challenge ([2]; 3 μg LPS i.p., treatment 2 h before (ABR-215757 10 mg/kg)): significantly inhibited
TNFα production after LPS challenge ([2]; 6 μg LPS i.p., 10 mg/kg 2 h before): significantly inhibited
IC50 [3]: 334 µM
IC50 ([4]; 100 nM S100A9, competitor 7.81 to 1,000 μM, single experiment Figure 3C, read-out: IC50, inhibition of S100A9 binding to immobilised hTLR4/MD2): 23 µM
IC50 ([4]; Table S1, read-out: S100A9 binding IC50, hS100A9 TLR4): 59.7 µM
binding of S100A8 to immobilised Q compound [5]: close to baseline levels
direct binding to RAGE [6]: not observed
IC50 ([7]; S100A9 binding IC50, hS100A9 RAGE, Table S1): 60.5 µM
IC50 ([7]; competitor concentration yielding 50% inhibition of S100A9 binding to RAGE surface, 100 nM S100A9, competitor 7.81–1,000 μM, single experiment Figure 2C): 26 µM
IC50 [8]: 334 µM
IC50 [9]: 940 µM
ED50 [10]: 0.04 mg/kg
competition of mouse S100A9 interaction with solid-phase mouse TLR4/MD2 ([11]; 100 nM mouse S100A9): competed
IC50 ([11]; Table S1): 698 µM
direct binding to hTLR4/MD2 [12]: negligible
competition of mouse S100A9 interaction with solid-phase mouse RAGE ([13]; 100 nM mouse S100A9): competed
IC50 ([13]; Table S1): 311 µM

Kd [14]: 0.0092 µM
Kd [15]: 0.0021 µM
Kd [16]: 0.038 µM
B1: human S100A9 (natural protein, UniProt P06702 1-114, looked up)
chain: MTCKMSQLERNIETIINTFHQYSVKLGHPDTLNQGEFKELVRKDLQNFLKKENKNEKVIEHIMEDLDTNADKQLSFEEFIMLMARLTWASHEKMHEGDEGPGHHHKPGLGEGTP
notes: S100A9, human; called homodimeric; also called hS100A9; homodimeric S100A9; source: either produced recombinantly in Escherichia coli or purified from granulocytes
